In this test the target is T1, NaV 1.7 (Homo sapiens, UniProt Q15858).
T1 construct: expressed in transfected cells; host or cells: HEK cells
T1 sequence (Q15858 whole entry): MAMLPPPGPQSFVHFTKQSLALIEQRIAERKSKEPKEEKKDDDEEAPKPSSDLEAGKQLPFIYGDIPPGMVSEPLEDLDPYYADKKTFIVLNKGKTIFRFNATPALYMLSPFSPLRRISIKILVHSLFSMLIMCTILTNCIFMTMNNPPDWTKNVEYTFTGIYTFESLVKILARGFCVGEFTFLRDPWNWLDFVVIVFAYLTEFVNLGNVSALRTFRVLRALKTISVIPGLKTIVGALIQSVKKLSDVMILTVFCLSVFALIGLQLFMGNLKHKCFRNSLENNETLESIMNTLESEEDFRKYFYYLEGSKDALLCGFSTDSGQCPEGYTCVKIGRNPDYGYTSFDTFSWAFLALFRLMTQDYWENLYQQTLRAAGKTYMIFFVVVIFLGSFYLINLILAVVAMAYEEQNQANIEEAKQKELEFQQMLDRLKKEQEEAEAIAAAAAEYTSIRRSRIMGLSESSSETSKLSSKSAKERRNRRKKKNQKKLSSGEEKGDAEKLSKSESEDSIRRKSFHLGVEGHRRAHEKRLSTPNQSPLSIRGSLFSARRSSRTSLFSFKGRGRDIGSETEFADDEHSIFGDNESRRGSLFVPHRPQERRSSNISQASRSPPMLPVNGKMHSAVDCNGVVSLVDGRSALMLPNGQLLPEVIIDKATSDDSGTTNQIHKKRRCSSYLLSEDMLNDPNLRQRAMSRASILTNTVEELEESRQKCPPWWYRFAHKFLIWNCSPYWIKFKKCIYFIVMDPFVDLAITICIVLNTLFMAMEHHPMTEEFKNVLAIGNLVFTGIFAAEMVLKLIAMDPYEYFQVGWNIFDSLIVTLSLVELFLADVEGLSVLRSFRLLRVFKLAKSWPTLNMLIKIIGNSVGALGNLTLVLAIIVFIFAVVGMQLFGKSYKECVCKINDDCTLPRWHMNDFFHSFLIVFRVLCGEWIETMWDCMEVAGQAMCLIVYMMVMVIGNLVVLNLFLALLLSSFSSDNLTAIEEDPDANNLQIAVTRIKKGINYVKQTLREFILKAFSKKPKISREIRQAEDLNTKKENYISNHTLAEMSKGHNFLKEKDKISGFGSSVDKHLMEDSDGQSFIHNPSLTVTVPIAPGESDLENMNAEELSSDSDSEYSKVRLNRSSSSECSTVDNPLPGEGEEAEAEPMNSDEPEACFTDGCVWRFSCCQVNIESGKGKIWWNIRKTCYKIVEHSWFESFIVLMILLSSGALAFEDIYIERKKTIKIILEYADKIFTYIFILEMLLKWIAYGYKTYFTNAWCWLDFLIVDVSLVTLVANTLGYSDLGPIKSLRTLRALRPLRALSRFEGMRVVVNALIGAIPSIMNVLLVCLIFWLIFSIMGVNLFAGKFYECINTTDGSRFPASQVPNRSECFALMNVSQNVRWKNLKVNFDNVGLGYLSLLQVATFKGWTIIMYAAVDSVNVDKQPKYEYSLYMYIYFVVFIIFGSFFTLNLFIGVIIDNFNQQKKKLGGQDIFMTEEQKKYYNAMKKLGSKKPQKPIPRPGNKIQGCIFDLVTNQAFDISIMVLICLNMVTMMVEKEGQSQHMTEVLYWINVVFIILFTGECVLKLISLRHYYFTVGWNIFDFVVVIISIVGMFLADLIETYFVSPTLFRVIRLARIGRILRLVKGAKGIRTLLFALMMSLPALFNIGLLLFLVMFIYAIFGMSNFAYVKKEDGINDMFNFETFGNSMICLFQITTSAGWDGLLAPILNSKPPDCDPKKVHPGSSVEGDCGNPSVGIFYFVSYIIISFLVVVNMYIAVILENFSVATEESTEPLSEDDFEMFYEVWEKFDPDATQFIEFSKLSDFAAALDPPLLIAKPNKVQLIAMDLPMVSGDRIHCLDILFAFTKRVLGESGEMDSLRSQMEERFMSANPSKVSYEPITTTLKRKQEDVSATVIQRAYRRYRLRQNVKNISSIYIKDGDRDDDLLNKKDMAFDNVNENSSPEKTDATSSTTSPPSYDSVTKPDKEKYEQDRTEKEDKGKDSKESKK
The test can be described thus: E-VIPR optical membrane potential assay with electrical stimulation. Type of test: cell-based. As to conditions: active against one or more sodium channels; assay/subtype not specified in Table 4; read-out: IC50 Binned Activity Data. An outline of the steps: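 HEK cells expressing human NaV1.7, loaded with CC2-DMPE/DiSBAC6(3) FRET dyes, then exposed to compounds for 20-35 min at room temperature (0.625% DMSO). Electrical stimulation applied for 9 s with 400 Hz scanning. Read-out is the background-subtracted 460/580 nm emission ratio, normalized.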
For `COc1cc(C(=O)N2CC[C@]3(c4cccc(C(F)(F)F)n4)OCOC3C2)ccc1OCCC(F)(F)F` (some centres unmarked) [Compound 274], the half-maximal inhibitory concentration (IC50) is no more than 2000 nM.

With `COc1cc(C(=O)N2CC[C@]3(c4cccc(C(F)(F)F)n4)OCOC3C2)ccc1OCC1CC(F)(F)C1` (some centres unmarked) [Compound 275], the half-maximal inhibitory concentration (IC50) is no more than 2000 nM.

Regarding `COc1cc(C(=O)N2CC[C@]3(c4ccccn4)COC[C@@H]3C2)ccc1OCCOC(F)(F)F` [Compound 276], the 50% inhibitory concentration (IC50) is greater than 5000 nM.

For `COc1cc(C(=O)N2CC[C@]3(c4ccccn4)C(=O)OCC3C2)ccc1OCCOC(F)(F)F` (some centres unmarked) [Compound 277], the IC50 was no more than 2000 nM.

Turning to `COc1cc(C(=O)N2CC[C@@]3(c4ccccn4)COCC3C2)ccc1OCCOC(F)(F)F` (some centres unmarked) [Compound 278], the IC50 was no more than 2000 nM.

With `[2H]C1([2H])OC2CN(C(=O)c3ccc(OCC4CC(F)(F)C4)c(OC)n3)CC[C@]2(c2cccc(F)c2)O1` (some centres unmarked) [Compound 279], the concentration for half-maximal inhibition (IC50) is no more than 2000 nM.

Regarding `[2H]C1([2H])OC2CN(C(=O)c3ccc(OCC4CC(F)(F)C4)c(OC)n3)CC[C@]2(c2cc(F)cc(F)c2)O1` (some centres unmarked) [Compound 280], the 50% inhibitory concentration (IC50) was no more than 2000 nM.

Take `COc1nc(C(=O)N2CC[C@]3(c4cccc(F)c4F)OCOC3C2)ccc1OCC1CC(F)(F)C1` (some centres unmarked) [Compound 281]: the concentration for half-maximal inhibition (IC50) was no more than 2000 nM.

On to `COc1cc(C(=O)N2CC[C@]3(c4cccc(F)c4F)OCOC3C2)ccc1OCCC(F)(F)F` (some centres unmarked) [Compound 282], for which the IC50 is no more than 2000 nM.

`COc1cc(C(=O)N2CC[C@]3(c4cccc(Cl)c4)OCOC3C2)ccc1OCCOC(F)(F)F` (some centres unmarked) [Compound 283]: the 50% inhibitory concentration (IC50) is no more than 2000 nM.

Turning to `[2H]C1([2H])OC2CN(C(=O)c3ccc(OCC4CCC4)c(OC)n3)CC[C@]2(c2cccc(F)c2)O1` (some centres unmarked) [Compound 284], the 50% inhibitory concentration (IC50) is no more than 2000 nM.

For `COc1cc(C(=O)N2CCC3(c4ccccn4)CC3C2)ccc1OCCOC(F)(F)F` (centres unmarked) [Compound 285], the IC50 was no more than 2000 nM.

On to `COc1cc(C(=O)N2CC[C@]3(c4cc(F)ccc4F)OCOC3C2)ccc1OC(C)C(F)(F)F` (some centres unmarked) [Compound 286], for which the IC50 is no more than 2000 nM.

On to `COc1cc(C(=O)N2CC[C@]3(c4cc(F)ccc4F)OCOC3C2)ccc1OCCC(F)(F)F` (some centres unmarked) [Compound 287], for which the IC50 was no more than 2000 nM.

Regarding `COc1cc(C(=O)N2CC[C@]3(c4cc(F)ccc4F)OCOC3C2)ccc1OCC1CC(F)(F)C1` (some centres unmarked) [Compound 288], the IC50 was no more than 2000 nM.

`COc1nc(C(=O)N2CC[C@]3(c4cc(F)ccc4F)OCOC3C2)ccc1OCCOC(F)(F)F` (some centres unmarked) [Compound 289]: the IC50 was no more than 2000 nM.

As for `COc1cc(C(=O)N2CC[C@]3(c4cccc(C#N)c4)OCOC3C2)ccc1OC(C)C(F)(F)F` (some centres unmarked) [Compound 290], the IC50 was greater than 5000 nM.

For `COc1cc(C(=O)N2CC[C@]3(c4cccc(C#N)c4)OCOC3C2)ccc1OCC1CC(F)(F)C1` (some centres unmarked) [Compound 291], the concentration for half-maximal inhibition (IC50) is no more than 2000 nM.

As for `COc1nc(C(=O)N2CC[C@]3(c4cccc(C#N)c4)OCOC3C2)ccc1OCCOC(F)(F)F` (some centres unmarked) [Compound 292], the IC50 is no more than 2000 nM.

Take `COc1cc(C(=O)N2CC[C@]3(c4cccc(C#N)c4)OCOC3C2)ccc1OCCOC(F)(F)F` (some centres unmarked) [Compound 293]: the IC50 was no more than 2000 nM.

Take `O=C(c1cnc(OCCOC(F)(F)F)c(Cl)c1)N1CC[C@]2(c3ccccn3)OCOC2C1` (some centres unmarked) [Compound 294]: the IC50 was no more than 2000 nM.

For the compound `O=C(c1cnc(OCCOC(F)(F)F)c(Cl)c1)N1CC[C@]2(c3ccccc3)OCOC2C1` (some centres unmarked) [Compound 295], the IC50 was no more than 2000 nM.

For `O=C(c1cnc(OCCOC(F)(F)F)c(Cl)c1)N1CCC2(c3ccc(F)cc3)CC2C1` (centres unmarked) [Compound 296], the concentration for half-maximal inhibition (IC50) lay in the range of 2000 to 5000 nM.

With `COc1cc(C(=O)N2CCC3(c4ccc(F)cc4)CC3C2)ccc1OC(C)C(F)(F)F` (centres unmarked) [Compound 297], the IC50 is greater than 5000 nM.

`COc1cc(C(=O)N2CCC3(c4ccc(F)cc4)CC3C2)ccc1OCC1CC(F)(F)C1` (centres unmarked) [Compound 298]: the concentration for half-maximal inhibition (IC50) is no more than 2000 nM.

For `COc1nc(C(=O)N2CCC3(c4ccc(F)cc4)CC3C2)ccc1OCCOC(F)(F)F` (centres unmarked) [Compound 299], the IC50 is no more than 2000 nM.

With `COc1cc(C(=O)N2CCC3(c4ccc(F)cc4)CC3C2)ccc1OCCOC(F)(F)F` (centres unmarked) [Compound 300], the IC50 is no more than 2000 nM.

With `O=C(c1ccc(OCCOC(F)(F)F)c(Cl)c1)N1CCC2(c3ccc(F)cc3)CC2C1` (centres unmarked) [Compound 301], the concentration for half-maximal inhibition (IC50) was no more than 2000 nM.

Turning to `[2H]C1([2H])OC2CN(C(=O)c3ccc(OCCOC(F)(F)F)c(OC)c3)CC[C@]2(c2ccccc2)O1` (some centres unmarked) [Compound 302], the half-maximal inhibitory concentration (IC50) was no more than 2000 nM.

With `[2H]C1([2H])OC2CN(C(=O)c3ccc(OCCOC(F)(F)F)c(C)n3)CC[C@]2(c2ccccn2)O1` (some centres unmarked) [Compound 303], the half-maximal inhibitory concentration (IC50) was no more than 2000 nM.

`[2H]C1([2H])OC2CN(C(=O)c3ccc(OCCOC(F)(F)F)c(Cl)c3)CC[C@]2(c2ccccn2)O1` (some centres unmarked) [Compound 304]: the concentration for half-maximal inhibition (IC50) was no more than 2000 nM.

`[2H]C1([2H])OC2CN(C(=O)c3ccc(OCCOC(F)(F)F)c(OC)c3)CC[C@]2(c2ccccn2)O1` (some centres unmarked) [Compound 305]: the 50% inhibitory concentration (IC50) is no more than 2000 nM.

As to `[2H]C1([2H])OC2CN(C(=O)c3ccc(OCCOC(F)(F)F)c(C)n3)CC[C@]2(c2cccc(F)c2)O1` (some centres unmarked) [Compound 306], the IC50 is no more than 2000 nM.

In the case of `[2H]C1([2H])O[C@@H]2CN(C(=O)c3ccc(OC(C)C(F)(F)F)c(OC)c3)CC[C@]2(c2cccc(F)c2)O1` (some centres unmarked) [Compound 307], the half-maximal inhibitory concentration (IC50) was no more than 2000 nM.

Consider `[2H]C1([2H])OC2CN(C(=O)c3ccc(OCCOC(F)(F)F)c(C)n3)CC[C@]2(c2cc(F)cc(F)c2)O1` (some centres unmarked) [Compound 308], for which the half-inhibitory concentration (IC50) is no more than 2000 nM.

Consider `[2H]C1([2H])OC2CN(C(=O)c3ccc(OCCOC(F)(F)F)c(OC)n3)CC[C@]2(c2cc(F)cc(F)c2)O1` (some centres unmarked) [Compound 309], for which the half-maximal inhibitory concentration (IC50) was no more than 2000 nM.

On to `COc1cc(C(=O)N2CC[C@]3(c4ccccn4)OC(C)(C)OC3C2)ccc1OCCOC(F)(F)F` (some centres unmarked) [Compound 310], for which the IC50 is no more than 2000 nM.

Consider `CC(Oc1ccc(C(=O)N2CC[C@]3(c4ccccn4)OCOC3C2)cc1C(F)(F)F)C(F)(F)F` (some centres unmarked) [Compound 311], for which the IC50 was no more than 2000 nM.

Take `O=C(c1ccc(OCC2CC(F)(F)C2)c(C(F)(F)F)c1)N1CC[C@]2(c3ccccn3)OCOC2C1` (some centres unmarked) [Compound 312]: the half-inhibitory concentration (IC50) was no more than 2000 nM.

In the case of `CC(F)(F)COc1ccc(C(=O)N2CC[C@]3(c4ccccn4)OCOC3C2)cc1C(F)(F)F` (some centres unmarked) [Compound 313], the IC50 was 2000 to 5000 nM.

On to `COc1cc(C(=O)N2CC[C@]3(c4cccc(OCC(C)C)n4)OCOC3C2)ccc1OCCOC(F)(F)F` (some centres unmarked) [Compound 314], for which the IC50 was no more than 2000 nM.

These data come from US10233191B2, “Fused piperidine amides as modulators of ion channels” (Vertex Pharmaceuticals Incorporated, priority 2013, dated 2019).
